Measurements published in ChEMBL document CHEMBL1133028, “The synthesis and in vitro cytotoxic studies of novel oxa-spermidine derivatives and homologues” (2000).

Experiments:
Type in all cases: functional
[1] = system: IGROV-1; test: Compound was evaluated for the growth inhibition of […] ovarian cell lines; details: Homo sapiens
[2] = system: OVCAR-5; test: Compound was evaluated for the growth inhibition of OVCAR-5 ovarian cell lines; details: Homo sapiens
[3] = system: leukaemia cell line; test: Compound was evaluated for the growth inhibition of cell cultures derived from human leukemia tumors
[4] = system: Tumor Cell line; test: Mean values over all human tumor cell lines were determined
[5] = system: Panel renal (Carcinoma cell lines); test: Compound was evaluated for the growth inhibition of cell cultures derived from human renal cancer tumors
[6] = system: Panel colon (Carcinoma cell lines); test: Compound was evaluated for the growth inhibition of cell cultures derived from human colon cancer tumors
[7] = system: Melanoma tumor cell line; test: Compound was evaluated for the growth inhibition of cell cultures derived from human melanoma tumors
[8] = system: Ovarian cancer cell line; test: (§1) Compound was evaluated for the growth inhibition of cell cultures derived from human ovarian cancer tumors
[9] = system: Panel CNS (Carcinoma cell lines); test: Compound was evaluated for the growth inhibition of cell cultures derived from human Cns cancer tumors
[10] = species: Homo sapiens; test: Compound was evaluated for the growth inhibition of cell cultures derived from human prostate cancer tumors
[11] = system: Lung cancer tumor cell line; test: Compound was evaluated for the growth inhibition of cell cultures derived from human non small cell lung cancer tumors
[12] = system: Panel breast (Carcinoma cell lines); test: (§2) Compound was evaluated for the growth inhibition of cell cultures derived from human breast cancer tumors
[13] = system: Tumor Cell line; test: Compound was evaluated for the growth inhibition of a panel of human tumor cell lines
[14] = species: Homo sapiens; test: as §1
[15] = as §2
[16] = system: Tumor Cell line; test: Compound was evaluated for the growth inhibition against panel of human tumor cell lines

Row | Compound | GI50 [2] | GI50 [3] | GI50 [4] | GI50 [5] | GI50 [6] | GI50 [7] | GI50 [8] | GI50 [9] | GI50 [11] | GI50 [12] | GI50 [13] | GI50 [16] | GI50 [1] | GI50 [10] | GI50 [14] | GI50 [15]
1 | Cc1c(C)c(S(=O)(=O)N(CCCCCCN2C(=O)c3ccccc3C2=O)OCCCN2C(=O)c3ccccc3C2=O)c(C)c2c1OC(C)(C)CC2 | 52.5 µM | – | – | – | – | – | – | – | – | – | – | – | 3.27 µM | – | – | –
2 | Cc1c(C)c(S(=O)(=O)N(CCCCCN2C(=O)c3ccccc3C2=O)OCCCN2C(=O)c3ccccc3C2=O)c(C)c2c1OC(C)(C)CC2 | 52.5 µM | – | – | – | – | – | – | – | – | – | – | – | 3.27 µM | – | – | –
3 | Cc1c(C)c(S(=O)(=O)N(CCCCN2C(=O)c3ccccc3C2=O)OCCCN2C(=O)c3ccccc3C2=O)c(C)c2c1OC(C)(C)CC2 | 52.5 µM | – | – | – | – | – | – | – | – | – | – | – | 3.27 µM | – | – | –
4 | Cc1c(C)c(S(=O)(=O)N(CCCN2C(=O)c3ccccc3C2=O)OCCCN2C(=O)c3ccccc3C2=O)c(C)c2c1OC(C)(C)CC2 | 52.5 µM | – | – | – | – | – | – | – | – | – | – | – | 3.27 µM | – | – | –
5 | Cc1cc(C)c(S(=O)(=O)N(CCCCCN)OCCCN)c(C)c1 | – | 15.3 µM | 15.2 µM | 16.1 µM | 16.2 µM | 18.2 µM | 17.9 µM | 16.9 µM | 16.9 µM | 20.2 µM | – | – | – | 15.7 µM | – | –
6 | Cc1cc(C)c(S(=O)(=O)N(CCCN)OCCCN)c(C)c1 | – | – | – | – | – | – | – | – | – | – | > 100 µM | – | – | – | – | –
7 | Cc1cc(C)c(S(=O)(=O)N(CCCCCCN)OCCCN)c(C)c1 | – | 19.5 µM | 18.3 µM | 17.5 µM | 16.7 µM | 15.7 µM | 18 µM | 16.5 µM | 22.4 µM | 23 µM | – | – | – | 15.4 µM | – | –
8 | Cc1cc(C)c(S(=O)(=O)N(CCCCN)OCCCN)c(C)c1 | – | 11.8 µM | 16.4 µM | 18.2 µM | 13.3 µM | 18.1 µM | – | 18.1 µM | 18.5 µM | 17.8 µM | – | – | – | 14.5 µM | 17.2 µM | –
9 | NCCCNOCCCN | – | – | – | – | – | – | – | – | – | – | – | > 100 µM | – | – | – | –

Continued, in another order:

Row | GI50 [2] | GI50 [3] | GI50 [4] | GI50 [5] | GI50 [6] | GI50 [7] | GI50 [8] | GI50 [9] | GI50 [11] | GI50 [12] | GI50 [13] | GI50 [16] | Compound | GI50 [1] | GI50 [10] | GI50 [14] | GI50 [15]
10 | – | 6.3 µM | 12.5 µM | 14.3 µM | 12.8 µM | 13.7 µM | – | 14.9 µM | 13.5 µM | – | – | – | Cc1c(C)c(S(=O)(=O)N(CCCCCON)OCCCN)c(C)c2c1OC(C)(C)CC2 | – | 10.6 µM | 12.4 µM | 13.8 µM
11 | – | 4.1 µM | 8.5 µM | 11.3 µM | 7.2 µM | 10.7 µM | 4.7 µM | 5.6 µM | 6.3 µM | 10.2 µM | – | – | Cc1c(C)c(S(=O)(=O)N(CCCCCCN)OCCCN)c(C)c2c1OC(C)(C)CC2 | – | 16.3 µM | – | –
12 | – | 26.8 µM | 19.6 µM | 20.9 µM | 20.3 µM | 19.1 µM | 13.5 µM | 18 µM | 15.3 µM | 28.4 µM | – | – | Cc1c(C)c(S(=O)(=O)N(CCCCN)OCCCN)c(C)c2c1OC(C)(C)CC2 | – | 14.5 µM | – | –
13 | – | 3.9 µM | 11.2 µM | 16.5 µM | 9.8 µM | 10.9 µM | 12.7 µM | 9.6 µM | 11.5 µM | 10 µM | – | – | Cc1c(C)c(S(=O)(=O)N(CCCCCN)OCCCN)c(C)c2c1OC(C)(C)CC2 | – | 16.1 µM | – | –
14 | – | 13 µM | 14 µM | 14.7 µM | 13.8 µM | 14.8 µM | 12.6 µM | 12.9 µM | 14.2 µM | 15.8 µM | – | – | Cc1c(C)c(S(=O)(=O)N(CCCN)OCCCN)c(C)c2c1OC(C)(C)CC2 | – | 14 µM | – | –
